EC50 data for three compounds are collected here from patent US9260440B2, “Fused tetra or penta-cyclic dihydrodiazepinocarbazolones as PARP inhibitors” (BeiGene, Ltd., priority 2011, dated 2016).

pEC50: −log10 of the molar value.

The test system of this test is PARP PARylation in HeLa cells. The experiment in a line: PARylation assay in HeLa cells. The following applies: Homo sapiens, H2O2 200 μM induced DNA damage. Format: cell-based.
Usually pEC50 stands for the EC50 on a negative log10 scale, so that one unit is a factor of ten. Higher therefore signals a low EC50. Turning to `O=C1NN=C2CC(c3ccccc3)Cc3[nH]c4cccc1c4c32` (stereo not drawn) [Compound 5, 2-phenyl-2,3,5,10-tetrahydro-[1,2]diazepino[3,4,5,6-def]carbazol-6(1H)-one], the pEC50 is 8.00. On to `CN(C)c1ccc(C2CC3=NNC(=O)c4cc(F)cc5[nH]c(c3c45)C2)cc1` (stereo not drawn) [Compound 12, 2-(4-(dimethylamino)phenyl)-8-fluoro-2,3,5,10-tetrahydro-[1,2]diazepino[3,4,5,6-def]carbazol-6(1H)-one], for which the negative-log EC50 (pEC50) was 7.58. `N[C@@H](Cc1ccccc1)C(=O)N1CC2=NNC(=O)c3cccc4[nH]c(c2c34)C1` [Compound 64, (S)-2-(2-amino-3-phenylpropanoyl)-2,3,4,9-tetrahydro-2,4,9,10-tetraazacyclohepta[def]fluoren-8(1H)-one] gave a negative-log EC50 (pEC50) of 7.32.
